Assay results taken from US8828906B2, “Active compound combinations having insecticidal and acaricidal properties” (Bayer CropScience AG, priority 2009, dated 2014).

Tests used:
Assay type in all cases: in vivo
Myzus persicae [1] = assay: Myzus persicae test on cabbage; settings: cabbage leaves sprayed
Procedure: (§1) Solvents: 78 parts by weight of acetone
(§2) • 1.5 parts by weight of dimethylformamide Emulsifier: 0.5 part by weight of alkylaryl polyglycol ether
(§3) To produce a suitable preparation of active compound, 1 part by weight of active compound is mixed with the stated amount of solvent and emulsifier, and the concentrate is diluted with emulsifier-containing water to the desired concentration.
Cabbage leaves (Brassica oleracea) which are heavily infested by the green peach aphid (Myzus persicae) are treated by spraying with the active compound preparation of the desired concentration.
(§4) After the desired period of time, the kill in % is determined. 100% means that all of the aphids have been killed; 0% means that none of the aphids have been killed. The kill rates determined are entered into Colby's formula (see above).

Phaedon cochleariae = Phaedon cochleariae larvae test; settings: cabbage leaves sprayed
Procedure: as §1, §2, §3
Cabbage leaves (Brassica oleracea) are treated by spraying with the active ingredient formulation of the desired concentration and populated with larvae of the mustard beetle (Phaedon cochleariae) while the leaves are still moist.
After the desired period of time, the kill in % is determined. 100% means that all beetle larvae have been killed; 0% means that none of the beetle larvae have been killed. The kill rates determined are entered into Colby's formula (see above).

Tetranychus urticae = Tetranychus urticae test (OP-resistant/spray treatment); settings: bean leaf discs sprayed
Procedure: as §1, §2, §3
Discs of bean leaves (Phaseolus vulgaris) which are infested by all stages of the greenhouse red spider mite (Tetranychus urticae) are sprayed with an active compound preparation of the desired concentration.
After the desired period of time, the effect in % is determined. 100% means that all of the spider mites have been killed; 0% means that none of the spider mites have been killed.

Spodoptera frugiperda = Spodoptera frugiperda larvae test; settings: cabbage leaves sprayed
Procedure: as §1, §2, §3
Cabbage leaves (Brassica oleracea) are treated by being sprayed with the preparation of active compound of the desired concentration and are populated with larvae of the armyworm (Spodoptera frugiperda) while the leaves are still moist.
After the desired period of time, the kill in % is determined. 100% means that all caterpillars have been killed; 0% means that none of the caterpillars have been killed. The kill rates determined are entered into Colby's formula (see above).

Myzus persicae [2] = assay: Myzus persicae test on bell pepper; settings: 0.8 g/ha, bell-pepper plants sprayed
Procedure: Solvent: 7 parts by weight of dimethylformamide
Emulsifier: 2 parts by weight of alkylaryl polyglycol ether
as §3
Bell-pepper plants (Capsicum annuum) which are heavily infested by the green peach aphid (Myzus persicae) are treated by spraying with the active compound preparation of the desired concentration.
as §4

In the case of CC1(C)C(C=C(Cl)Cl)C1C(=O)OC(C#N)c1cccc(Oc2ccccc2)c1 (stereo not drawn) [alpha-cypermethrin], the “Kill in % after 1d” value (Myzus persicae [1]; 0.16 g/ha) is reported as 30%.

CC1(C)C(C=C(Cl)Cl)C1C(=O)OC(C#N)c1ccc(F)c(Oc2ccccc2)c1 (stereo not drawn) [beta-cyfluthrin] was tested, and the “Kill in % after 1d” value (Myzus persicae [1]; 0.16 g/ha) was 40%, the “Kill in % after 2d” value (Phaedon cochleariae; 0.8 g/ha) was 50% and the “Kill in % after 2d” value (Phaedon cochleariae; 4 g/ha) was 83%.

With Cc1c(COC(=O)C2C(/C=C(\Cl)C(F)(F)F)C2(C)C)cccc1-c1ccccc1 (stereo not drawn) [bifenthrin] the “Kill in % after 6d” value (Myzus persicae [1]; 0.032 g/ha) was 0%, the “Kill in % after 1d” value (Myzus persicae [1]; 0.16 g/ha) was 20% and the “Kill in % after 2d” value (Phaedon cochleariae; 4 g/ha) was 67%. The “Kill in % after 2d” value (Tetranychus urticae; 4 g/ha) was 30%.

O=C1C=C(N(CCF)Cc2ccc(Cl)nc2)CO1 [compound (I-4), 4-{[(6-chloropyrid-3-yl)methyl](2-fluoroethyl)amino}furan-2(5H)-one] was tested, and the “Kill in % after 2d” value (Spodoptera frugiperda; 20 g/ha) was 0%, the “Kill in % after 2d” value (Spodoptera frugiperda; 100 g/ha) was 0% and the “Kill in % after 1d” value (Myzus persicae [1]; 4 g/ha) was 30%. The “Kill in % after 6d” value (Phaedon cochleariae; 20 g/ha) was 0%, the “Kill in % after 6d” value (Phaedon cochleariae; 100 g/ha) was 0% and the “Kill in % after 2d” value (Tetranychus urticae; 100 g/ha) was 0%.

For O=C1C=C(N(Cc2ccc(Cl)nc2)CC(F)F)CO1 [compound (I-5), 4-{[(6-chloropyrid-3-yl)methyl](2,2-difluoroethyl)amino}furan-2(5H)-one], the “Kill in % after 2d” value (Spodoptera frugiperda; 20 g/ha) was 0%, the “Kill in % after 2d” value (Spodoptera frugiperda; 100 g/ha) was 0% and the “Kill in % after 1d” value (Myzus persicae [1]; 0.8 g/ha) was 10%. The “Kill in % after 6d” value (Myzus persicae [1]; 0.8 g/ha) was 10%, the “Kill in % after 6d” value (Myzus persicae [2]) was 45% and the “Kill in % after 2d” value (Phaedon cochleariae; 20 g/ha) was 0%.

With CN(Cc1cnc(Cl)c(F)c1)C1=CC(=O)OC1 [compound (I-6), 4-{[(6-chloro-5-fluorpyrid-3-yl)methyl](methyl)amino}furan-2(5H)-one] the “Kill in % after 2d” value (Spodoptera frugiperda; 20 g/ha) was 0%, the “Kill in % after 2d” value (Spodoptera frugiperda; 100 g/ha) was 0% and the “Kill in % after 2d” value (Phaedon cochleariae; 4 g/ha) was 0%. The “Kill in % after 2d” value (Phaedon cochleariae; 100 g/ha) was 0% and the “Kill in % after 6d” value (Phaedon cochleariae; 100 g/ha) was 0%.

In the case of CC1(C)C(C=C(Cl)Cl)C1C(=O)OC(C#N)c1cccc(Oc2ccccc2)c1 (stereo not drawn) [cypermethrin], the “Kill in % after 1d” value (Myzus persicae [1]; 0.16 g/ha) is reported as 10% and the “Kill in % after 1d” value (Myzus persicae [1]; 0.8 g/ha) is reported as 20%.

With CC1(C)[C@H](C(=O)OC(C#N)c2cccc(Oc3ccccc3)c2)[C@@H]1C=C(Br)Br (stereo partly drawn) [deltamethrin] the “Kill in % after 2d” value (Spodoptera frugiperda; 0.8 g/ha) was 50% and the “Kill in % after 6d” value (Myzus persicae [1]; 0.032 g/ha) was 0%.

For CC1(C)[C@H](C(=O)O[C@@H](C#N)c2cccc(Oc3ccccc3)c2)[C@@H]1/C=C(\Cl)C(F)(F)F [gamma-cyhalothrin], the “Kill in % after 2d” value (Spodoptera frugiperda; 4 g/ha) was 67% and the “Kill in % after 1d” value (Myzus persicae [1]; 0.16 g/ha) was 0%.

CC1(C)C(/C=C(\Cl)C(F)(F)F)C1C(=O)OC(C#N)c1cccc(Oc2ccccc2)c1 (stereo not drawn) [lambda-cyhalothrin] was tested, and the “Kill in % after 2d” value (Spodoptera frugiperda; 4 g/ha) was 33%, the “Kill in % after 1d” value (Myzus persicae [1]; 0.032 g/ha) was 0% and the “Kill in % after 2d” value (Phaedon cochleariae; 0.16 g/ha) was 33%. For the same compound, the “Kill in % after 2d” value (Tetranychus urticae; 4 g/ha) was 0%.

For CC1(C)[C@H](C=C(Cl)Cl)[C@H]1C(=O)OCc1c(F)c(F)cc(F)c1F [transfluthrin], the “Kill in % after 6d” value (Myzus persicae [2]) was 0%.
